Assay results reported in patent US20120034193A1, “TREATMENT OF NEUROTROPHIC FACTOR MEDIATED DISORDERS” (priority 2009, published 2012).
Counter-ions that a name gives are not always drawn.

Tests used:
[1] = system: rat primary cortical neurones; test: Inhibition of induced neurite outgrowth by K252a or PD98059; type: cell-based
Experimental: (§1) Cortical neurones were cultured as detailed above. Neurones were exposed to vehicle (DMSO, 0.25%) or K252a (100 nM) for 1 h. After 1 h, vehicle, sarsasapogenin, smilagenin (30 nM) or BDNF (1.85 nM) was added to the medium in the maintained presence of K252a. Following 24 h exposure to sarsasapogenin or smilagenin (30 nM), vehicle (DMSO, 0.25%) or BDNF (1.85 nM), the neurones were washed using phosphate-buffered saline (PBS) and fixed in glutaraldehyde (2.5%) in PBS. Photographs of 40-60 neurones expressing neurites were taken with a camera fixed on a microscope (objective ×20, Nikon). The neurite length was measured by an analysis of the photographs.
as §1, with “PD98059 (10 μM)” for “K252a (100 nM)”, “vehicle,” for “vehicle, sarsasapogenin,”, “PD98059.” for “K252a.”, “to” for “to sarsasapogenin or”, “PBS” for “phosphate-buffered saline (PBS)”

[2] = system: pmn mice; details: literature; CNTF i.p. CNTF-secreting cells, Xaliproden oral from birth, CGP 3466B oral at onset; cited from earlier work
[3] = system: Rat spinal motor neurones; test: Neuronal survival and neurite outgrowth in spinal motor neurones; type: cell-based; details: 3 days
Experimental: Rat spinal motor neurones were prepared according to a previously described method (Martinou et al, Neuron, 8, 737-744, 1992). Following 3 days of culturing with sarsasapogenin, smilagenin, vehicle (DMSO, 0.25%), Xaliproden, or BDNF, spinal cord motor neurones were washed twice in PBS, fixed in a cold solution of alcohol (95%) and acetic acid (5%) for 5 min and then rinsed 3 times in PBS. Neurones were stained using a monoclonal antibody anti β-tubulin and an anti mouse Immunoglobulin G. These antibodies stained neurone cell bodies (quantifying the neuroprotective effect) and neurites (quantifying the neurotrophic effect). The cell nuclei were stained by a fluorescent marker. After 1 h of incubation, cells were washed 3 times in PBS. […] A series of pictures were taken using a camera controlled by computer software. All the images were taken under the same conditions. Analyses of the number of cells labelled with anti β-tubulin antibodies and of the total number of cells (number of stained nuclei) were performed using LUCIA 6.0 software.

[4] = system: rat primary cortical neurones; test: Pre-treatment against glutamate-induced damage (LDH) in cortical neurones; type: cell-based; details: 24 h before and 24 h after glutamate 100 μM 10 min
Experimental: Exposure of rat primary cortical neurones to glutamate increases lactate dehydrogenase (LDH) activity measured 24 h after glutamate exposure, indicating significant neuronal damage. Rat cortical neurones were cultured by modification of a method previously described (Singer, et al., Neuroscience Letters, 1996, 212, pp. 13-16). On day 10 of culture, the medium was changed to a serum-free defined medium. On day 12, the cultures were washed and placed for 24 h in fresh medium containing test compound or vehicle (DMSO, 0.25%). On day 13 neurones were exposed to glutamate (100 μM; 10 min) at 37° C. The cultures were then washed with, and placed in, fresh medium supplemented with test compound or vehicle for a further 24 h before LDH was measured. Neuronal damage was assessed by measuring LDH activity in the media at 24 h after glutamate exposure.

[5] = system: C57b1/6 RJ mice; test: Sciatic nerve crush model; type: in vivo, Mouse; details: 10 μg/kg/day i.p.; nerve crush alone 109.10 ± 2.65
Excerpt: The sciatic nerve crush model is a well characterised reversible model for motor neurone disease and post-traumatic nerve injuries (McMahon and Priestley, Current Opinion in Neurobiology, 1995, 5, pp. 616-624). The nerve damage is produced by mechanical pressure using haemostatic forceps, applied twice, 5 mm proximal to the trifurcation of the right sciatic nerve of these mice. […] The loss of nerve function recovers progressively over a 4-5 week period after the mechanical insult.
4-Methylcatechol (10 μg/kg/day, i.p.) was used as a positive control (Kaechi et al., Journal of Phamacology and Experimental Therapeutics, 1995, 272, pp. 1300-1304).
C57b1/6 RJ mice were anaesthetised with ketamine chlorhydrate (60 mg/kg, i.p.). The sciatic nerve was surgically exposed at mid thigh level and crushed at 5 mm proximal to the trifurcation of the sciatic nerve. The nerve was crushed twice for 30 s with a haemostatic forceps with a 90-degree rotation between each crush. […] The loss of nerve function recovered progressively over a 4-5 week period after mechanical insult. Electromyographic recordings were assessed as described above.

[6] = system: BDNF mRNA; test: BDNF mRNA expression in rat cortical neurones under basal conditions (rt RT-PCR); type: cell-based; details: 0.5 mM
Experimental: (§2) Rat cortical neurones were cultured by modification of a method previously described (Singer, et al., Neuroscience Letters, 1996, 212, pp. 13-16). Twelve days after the start of culturing, sarsasapogenin (30 nM), smilagenin (30 nM), 4-methylcatechol (0.5 mM), an inducer of NGF and BDNF release (Saporito et al., Experimental Neurology., 1993, 123, pp. 295-302; Nitta et al., Journal of Pharmacology and Experimental Therapeutics, 1999, 291, pp. 1276-1283) or vehicle (dimethyl sulfoxide, DMSO, 0.25%) were added for 1, 3 or 6 h. After incubation the total messenger ribonucleic acid (mRNA) was quantified using real time reverse transcription-polymerase chain reaction (rt RT-PCR).

[7] = system: trkB mRNA; test: trkB mRNA expression in rat cortical neurones under basal conditions (rt RT-PCR); type: cell-based; details: 0.5 mM
Experimental: as §2

[8] = system: Rat spinal motor neurones; test: Reversal of glutamate-induced damage in spinal motor neurones; type: cell-based; details: 3 nM for 48 h after glutamate 4 μM 10 min
Experimental: The rat spinal motor neurones were prepared as detailed above. On day 10, the medium was removed and the cultures exposed to glutamate (4 μM) for 10 min at 37° C. in 5% CO2/95% air atmosphere in defined medium. After the glutamate exposure, cultures were washed with DMEM at 37° C. then placed in fresh culture medium containing sarsasapogenin, smilagenin, vehicle or BDNF. After 48 h, the extent of motor neurone damage was determined as detailed above. This Example develops the work reported in Example 8 of PCT patent application No. WO-A-03/082893.

[9] = system: Rat cortical neurones; test: Neuronal survival and neurite outgrowth of cortical neurones cultured in the absence of serum; type: cell-based; details: 3 nM, one day, no serum
Experimental: Rat cortical neurones were cultured following the method described above.
The test compounds were added for 24 h.
Rat cortical neurones were exposed to sarsasapogenin, smilagenin (30 nM) or vehicle (DMSO, 0.25%) in the absence FBS or FCS for one day. Cortical neurones were stained using a monoclonal antibody anti β-tubulin diluted and an anti mouse Immunoglobulin G diluted. These antibodies stained neurone cell bodies (quantifying the neuroprotective effect) and neurites (quantifying the neurotrophic effect). An epifluorecence microscope (magnification ×20) with a camera took 2 pictures per well (10 pictures per condition). Analyses of the number of cells labelled with anti β-tubulin antibodies and of the total number of cells was performed using LUCIA 6.0 software.

[10] = system: Rat cortical neurones; test: Neuritogenesis in cortical neurones; type: cell-based; details: 3 nM, 24 h
Experimental: Rat cortical neurones were cultured by modification of a previously described method (Singer, et al., Neuroscience Letters, 1996, 212, pp. 13-16). Cells were cultured with sarsasapogenin, smilagenin, vehicle (DMSO 0.25%), GDNF, BDNF or NGF for 24 h. For each group, 15 pictures showing neurones displaying neurites were selected at random in each field, and for each neurone the longest neurite was measured. The neurite number was measured by counting the number of neurones displaying neurites, the number of neurones not displaying neurites and the number of total neurones in each field. Six fields per well were examined.
The results are shown in Table 15 below, expressed as the number of neurones with neurites per field as a percentage of the total number of neurones per field.

COC(=O)[C@@]1(O)C[C@H]2O[C@]1(C)n1c3ccccc3c3c4c(c5c6ccccc6n2c5c31)C(=O)NC4 [K252a, reference compound]
Neurite length (% of control) ([1]; K252a 100 nM alone (control with K252a)): 95.22 ± 3.10 % of control

Cc1c(C)c2c(c(C)c1O)CC[C@@](C)(C(=O)N1CCN(c3ccc(N=C(N)c4cccs4)cc3)CC1)O2 [BN 80933]
Increase of survival time / lifespan of pmn mice [2]: 40%

FC(F)(F)c1cccc(C2=CCN(CCc3ccc4ccccc4c3)CC2)c1 [Xaliproden, 1-[2-(naphth-2-yl)ethyl]-4-(3-trifluoromethylphenyl)-1,2,5,6-tetra-hydropyri-dine hydrochloride, reference compound]
Neurite outgrowth (% of control) ([3]; 30 nM): 137.57 ± 11.69 % of control | Neuronal survival (% of control) ([3]; 30 nM): 110.95 ± 2.14 % of control | Neurite outgrowth (% of control) ([3]; 100 nM): 137.55 ± 6.76 % of control | Neuronal survival (% of control) ([3]; 100 nM): 111.18 ± 2.85 % of control | Neurite outgrowth (% of control) ([3]; 300 nM): 131.22 ± 7.93 % of control | Neuronal survival (% of control) ([3]; 300 nM): 109.47 ± 3.34 % of control | Increase of survival time / lifespan of pmn mice [2]: ~50%

C#CCN(C)CC1=Cc2ccccc2Oc2ccccc21.O=C(O)/C=C\C(=O)O [CGP 3466B]
Increase of survival time / lifespan of pmn mice [2]: 57%

C[C@@H]1CC[C@@]2(OC1)O[C@H]1C[C@H]3[C@@H]4CC=C5C[C@@H](O)CC[C@]5(C)[C@H]4CC[C@]3(C)[C@H]1[C@@H]2C [diosgenin, reference compound]
Neuronal survival (% of control) ([4]; 3 nM): 69.43 ± 1.76 % of control | Neuronal survival (% of control) ([4]; 10 nM): 66.51 ± 5.13 % of control | Neuronal survival (% of control) ([4]; 30 nM): 68.98 ± 5.39 % of control | Neuronal survival (% of control) ([4]; 100 nM): 70.95 ± 5.03 % of control | Neuronal survival (% of control) ([4]; 300 nM): 75.02 ± 2.68 % of control

Cc1ccc(O)c(O)c1 [4-Methylcatechol, reference compound]
Degenerated fibres (% of control) [5]: −7.48 ± 1.62 % of control | BDNF mRNA, % increase above control ([6]; 1 h): No increase | BDNF mRNA, % increase above control ([6]; 3 h): No increase | BDNF mRNA, % increase above control ([6]; 6 h): 92% | trkB mRNA, % increase above control ([7]; 1 h): No increase | trkB mRNA, % increase above control ([7]; 3 h): No increase | trkB mRNA, % increase above control ([7]; 6 h): No increase

COc1cccc(-c2cc(=O)c3ccccc3o2)c1N [PD98059, reference compound]
Neurite length (% of control) ([1]; PD98059 10 μM alone (control with PD98059)): 96.08 ± 2.47 % of control

B1: BDNF: brain-derived neurotrophic factor (protein, UniProt P23560 19-247, looked up)
Neurotrophic factor BDNF …: APMKEANIRGQGGLAYPGVRTHGTLESVNGPKAGSRGLTSLADTFEHVIEELLDEDQKVRPNEENNKDADLYTSRVMLSSQVPLEPPLLFLLEEYKNYLDAANMSMRVRRHSDPARRGELSVCDSISEWVTAADKKTAVDMSGGTVTVLEKVPVSKGQLKQYFYETKCNPMGYTKEGCRGIDKRHWNSQCRTTQSYVRALTMDSKKRIGWRFIRIDTSCVCTLTIKRGR
Neurite outgrowth (% of control) ([3]; 1.85 nM): 176.91 ± 7.25 % of control | Neuronal survival (% of control) ([3]; 1.85 nM): 126.15 ± 1.60 % of control | Neuronal survival (% of control) [8]: 106.60 ± 6.14 % of control | Neurite length (% of control) ([1]; 1.85 nM, 24 h, no inhibitor): 125.30 ± 5.80^++++ % of control | Neurite length (% of control) ([1]; 1.85 nM, 24 h, with K252a (100 nM)): 87.31 ± 2.20 % of control | Neurite length (% of control) ([1]; 1.85 nM, 24 h, with PD98059 (10 μM)): 99.07 ± 5.15 % of control | Neurite outgrowth (% of control) [9]: 146.84 ± 9.27 % of control | Neuronal survival (% of control) [9]: 162.75 ± 5.61 % of control | Neurite length (% of control) [10]: 162.34 ± 5.91 % of control | Neurones displaying neurites (%) ([10]; control 39.35 ± 2.06): 48.06 ± 2.17 %

B2: CNTF: ciliary neurotrophic factor; i.p. administration of CNTF-secreting cells (protein, UniProt P26441 1-200, looked up)
Ciliary neurotrophic factor: MAFTEHSPLTPHRRDLCSRSIWLARKIRSDLTALTESYVKHQGLNKNINLDSADGMPVASTDQWSELTEAERLQENLQAYRTFHVLLARLLEDQQVHFTPTEGDFHQAIHTLLLQVAAFAYQIEELMILLEYKIPRNEADGMPINVGDGGLFEKKLWGLKVLQELSQWTVRSIHDLRFISSHQTGIPARGSHYIANNKKM
modifications: secreted by cells
Increase of survival time / lifespan of pmn mice [2]: 40%
